These results are taken from patent US5464861A, “2-thioindoles (selenoindoles) and related disulfides (selenides) which inhibit protein tyrosine kinases and which have antitumor properties” (Warner-Lambert, priority 1993, dated 1995).

The target in experiment [1] is T1, epidermal growth factor receptor tyrosine kinase (Homo sapiens, UniProt P00533).
T1 construct: A native 170,000 epidermal growth factor receptor-kinase complex from shed plasma membrane vesicles; endogenous in cells
In words: EGF receptor tyrosine kinase assay (P^32 incorporation in GAT). Format: biochemical. The following applies: Table 2, EGRF-R; IC50 entries; read-out: IC50 (EGFR TK). The procedure, abridged:
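Receptor pre-activated with 150 ng EGF for 10 min at room temperature. ATP with or without compound then added and incubated 10 min at room temperature.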

Experiment [2] has as its system Swiss 3T3 mouse fibroblasts. In words: Growth inhibition assay, Swiss 3T3 fibroblasts. Format: cell-based.
Protocol: Swiss 3T3 mouse fibroblasts were maintained in dMEM/F12 media containing 10% fetal calf serum. […] The cells were grown at 37° C. under 5% CO2 for 72 hours and then counted by Coulter counter. The data were expressed as the concentration of inhibitor necessary to decrease the growth rate by 50%.
The test system of a further experiment is Swiss 3T3 fibroblasts. The experiment in a line: Growth factor mediated mitogenesis (tritiated thymidine incorporation). Format: cell-based. The following applies: Mus musculus, Swiss-3T3, 24 h. As to the method: Swiss 3T3 fibroblasts, that were growth arrested in serum-free media for 24 hours, were exposed to various concentrations of compound for 2 hours. The cells were then exposed to individual growth factors for 24 hours and mitogenesis assessed by measuring tritiated thymidine incorporation into DNA.
The concentration of 21 and 70 required to inhibit growth factor mediated mitogenesis by 50% for the following growth factors was as follows: […]
Background: Dividing cells build labelled thymidine or BrdU into new DNA.

The next experiment concerns MDA 468 breast. The experiment in a line: Growth inhibition assay, MDA 468. Format: cell-based. Particulars: Homo sapiens, read-out: IC50 cell growth inhibition.
A further experiment has as its system A431 epidermoid. In words: Growth inhibition assay, A431. Format: cell-based. Particulars: Homo sapiens, A-431, read-out: IC50 cell growth inhibition.
The subject of the next experiment is A549 lung. In words: Growth inhibition assay, A549. Particulars: Homo sapiens, read-out: IC50 cell growth inhibition. Format: cell-based.
The next experiment has as its system MDV-7 breast. In words: Growth inhibition assay, MDV-7. The following applies: Homo sapiens, read-out: IC50 cell growth inhibition. Format: cell-based.
The subject of the next experiment is MDA-231 breast. The experiment in a line: Growth inhibition assay, MDA-231. Format: cell-based. The following applies: Homo sapiens, MDA-MB-231, read-out: IC50 cell growth inhibition.
A further experiment relates to HT-29 colon. In words: Growth inhibition assay, HT-29. Particulars: Homo sapiens, read-out: IC50 cell growth inhibition. Format: cell-based.
Experiment [3] concerns EGF mediated phosphorylation of a variety of endogenous proteins. In words: EGF mediated tyrosine phosphorylation, Western blot. Format: cell-based, mouse. Also on record: dose or concentration left out as unconfirmed. Particulars: Swiss 3T3. As to the method:
(§1) Swiss 3T3 fibroblasts, that were growth arrested in serum-free media for 24 hours, were exposed to various concentrations of compound for 2 hours. The cells were then exposed to individual growth factors for 5 minutes and proteins that were phosphorylated on tyrosine in response to the mitogens and were detected by Western blotting techniques using phosphotryosine antibodies. Similar techniques were used for tumor cell lines except the time in serum-free media was increased.

Experiment [4] deals with PDGF mediated autophosphorylation of the PDGF receptor and tyrosine phosphorylation of other endogenous proteins. In words: PDGF mediated tyrosine phosphorylation, Western blot. Format: cell-based, mouse. Also on record: dose or concentration left out as unconfirmed. Particulars: Swiss 3T3. On the procedure:
as §1
Background: Immunoblotting shows a protein as a band on a membrane.

For experiment [5], the system named is bFGF mediated tyrosine phosphorylation. The experiment in a line: bFGF mediated tyrosine phosphorylation, Western blot. Format: cell-based, mouse. As to the method:
as §1

The test system of experiment [6] is human tumor cell lines as well as the Swiss 3T3 fibroblasts. The experiment in a line: Growth inhibition of a variety of human tumor cell lines. Format: cell-based, human; mouse. As to the method: Swiss 3T3 mouse fibroblasts were maintained in dMEM/F12 media containing 10% fetal calf serum. Two mL of cells at a density of 1×10^4/mL were placed in 24-well plates plus or minus various concentrations of the inhibitor. The cells were grown at 37° C. under 5% CO2 for 72 hours and then counted by Coulter counter. The data were expressed as the concentration of inhibitor necessary to decrease the growth rate by 50%.

In experiment [7] the target is T2, human PDGF β receptor intracellular tyrosine kinase domain (Homo sapiens, UniProt P09619).
T2 construct: human PDGF β receptor intracellular tyrosine kinase domain; made in house; host or cells: SF9 insect cells, recombinant baculovirus; cell lysates used
The experiment in a line: PDGF receptor tyrosine kinase inhibition assay (P^32 incorporation in Glu-Tyr). Format: biochemical. Particulars: for inhibition at 100 µM: PDGF-R, read-out: % Inhibition at 100 μM (PDGFR TK).
Protocol: Recombinant baculovirus containing human PDGF β receptor intracellular tyrosine kinase domain was used to infect SF9 cells to overexpress the protein, and cell lysates were used for the assay. The ability of the tyrosine kinase to phosphorylate glutamate tyrosine substrate in the presence of P^32 -ATP and inhibitor was measured by counting the incorporation of P^32 in Glu-Tyr in TCAprecipitable material.

The subject of experiment [8] is human epidermoid carcinoma A431 cells. The following applies: J. Antibiot. 1986;39:170; cited from earlier work.
Experiment [9] concerns human mammary carcinoma MCF-7 and some esophageal tumors. The following applies: nude mice, dose-dependent; cited from earlier work.
The mark [10] stands for this setting: Swiss 3T3, 72 hours, Table 2, read-out: IC50 growth inhibition.

Each structure is given as a SMILES string. Read-outs that look alike come from different tables or passages of the source. A value given as a limit tells only on which side of the number the result lay.

T1 sequence (P00533 25-1210): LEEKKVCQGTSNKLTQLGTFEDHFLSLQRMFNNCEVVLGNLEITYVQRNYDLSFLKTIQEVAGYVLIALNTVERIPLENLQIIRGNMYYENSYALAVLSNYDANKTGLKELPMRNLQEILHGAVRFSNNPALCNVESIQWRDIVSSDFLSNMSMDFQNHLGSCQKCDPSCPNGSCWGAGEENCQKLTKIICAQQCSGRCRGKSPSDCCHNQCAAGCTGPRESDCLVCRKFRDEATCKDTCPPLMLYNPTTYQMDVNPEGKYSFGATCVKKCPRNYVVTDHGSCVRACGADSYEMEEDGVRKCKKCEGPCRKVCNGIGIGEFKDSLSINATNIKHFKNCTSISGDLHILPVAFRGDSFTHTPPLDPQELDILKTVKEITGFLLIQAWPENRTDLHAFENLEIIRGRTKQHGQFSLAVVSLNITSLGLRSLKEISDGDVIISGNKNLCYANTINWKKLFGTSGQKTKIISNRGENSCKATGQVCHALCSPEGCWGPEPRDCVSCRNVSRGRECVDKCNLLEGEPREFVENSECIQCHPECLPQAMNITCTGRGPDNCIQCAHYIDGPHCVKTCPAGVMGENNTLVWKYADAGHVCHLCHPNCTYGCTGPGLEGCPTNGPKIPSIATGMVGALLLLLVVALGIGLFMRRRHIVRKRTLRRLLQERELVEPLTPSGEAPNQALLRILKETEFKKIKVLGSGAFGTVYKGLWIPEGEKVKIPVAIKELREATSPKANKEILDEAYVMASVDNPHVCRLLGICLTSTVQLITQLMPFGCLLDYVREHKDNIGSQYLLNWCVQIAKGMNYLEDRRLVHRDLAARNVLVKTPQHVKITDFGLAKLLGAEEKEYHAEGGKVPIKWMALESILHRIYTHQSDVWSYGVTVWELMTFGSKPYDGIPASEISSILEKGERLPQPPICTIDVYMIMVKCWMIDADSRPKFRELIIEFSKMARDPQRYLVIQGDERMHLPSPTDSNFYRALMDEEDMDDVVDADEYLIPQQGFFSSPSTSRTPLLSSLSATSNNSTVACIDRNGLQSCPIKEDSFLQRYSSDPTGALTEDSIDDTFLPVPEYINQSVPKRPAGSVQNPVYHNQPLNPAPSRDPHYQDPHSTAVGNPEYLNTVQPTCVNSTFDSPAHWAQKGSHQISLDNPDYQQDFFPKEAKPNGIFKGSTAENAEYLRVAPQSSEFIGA
T1 sequence (P01133 971-1023 partner limits assumed): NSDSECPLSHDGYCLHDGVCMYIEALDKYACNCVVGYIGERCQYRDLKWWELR
T2 sequence (P09619 554-1106 limits assumed): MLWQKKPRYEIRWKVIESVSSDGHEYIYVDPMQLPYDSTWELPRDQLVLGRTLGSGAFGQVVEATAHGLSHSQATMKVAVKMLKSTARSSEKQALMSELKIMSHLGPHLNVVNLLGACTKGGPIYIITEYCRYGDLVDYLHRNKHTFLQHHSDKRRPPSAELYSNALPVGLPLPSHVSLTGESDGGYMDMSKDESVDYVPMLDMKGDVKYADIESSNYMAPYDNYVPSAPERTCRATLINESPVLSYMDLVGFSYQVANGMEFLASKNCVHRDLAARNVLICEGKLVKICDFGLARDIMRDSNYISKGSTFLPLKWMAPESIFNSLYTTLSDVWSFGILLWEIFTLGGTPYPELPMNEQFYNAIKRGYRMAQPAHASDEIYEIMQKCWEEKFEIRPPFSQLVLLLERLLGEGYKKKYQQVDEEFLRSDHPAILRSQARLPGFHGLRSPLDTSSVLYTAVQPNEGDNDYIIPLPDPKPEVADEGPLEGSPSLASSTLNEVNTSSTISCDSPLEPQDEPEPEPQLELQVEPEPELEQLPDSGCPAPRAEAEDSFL

On to `CN1C(=S)C(C(=O)Nc2ccccc2)c2ccccc21` (stereo not drawn) [Compound 21, N-phenyl (1-methyl-2-thioxo-3-indolinyl)carboxamide], for which the IC50 in experiment [1] came to 1 µM; in experiment [2] (setting [10]), 64 µM; in experiment [2] (Swiss 3T3 fibroblasts, cell line table, read-out: IC50 cell growth inhibition), 64 µM; in the experiment on Swiss 3T3 fibroblasts (EGF), 2 µM; in the experiment on Swiss 3T3 fibroblasts (PDGF), 8 µM; in the experiment with Swiss 3T3 fibroblasts (bFGF), 13 µM. Further, the IC50 turned out to be 19 µM in the experiment with Swiss 3T3 fibroblasts (serum); 43 µM in the experiment with MDA 468 breast; 62 µM in the experiment on A431 epidermoid; 30 µM in the experiment on A549 lung; 39 µM in the experiment with MDV-7 breast; 15 µM with MDA-231 breast. Moreover, the IC50 in the experiment with HT-29 colon is 55 µM. Further, the “suppression of EGF mediated phosphorylation of a variety of endogenous proteins” value in experiment [3] was “suppressed”. In experiment [4], the “suppression of PDGF mediated autophosphorylation of the PDGF receptor and tyrosine phosphorylation of other endogenous proteins” value is reported as “suppressed”. In experiment [5] (Swiss 3T3, 10 to 50 mM), the “suppression of bFGF mediated tyrosine phosphorylation” value is reported as “suppressed”. In experiment [6], the “growth inhibition in words” value was “growth inhibitory”.

With `Cn1c(SSc2c(C(=O)Nc3ccccc3)c3ccccc3n2C)c(C(=O)Nc2ccccc2)c2ccccc21` [Compound 70, bis [N-phenyl 1-methylindolyl-3-carboxamide-(2)] disulfide], the IC50 is 8.6 µM in [1]; 12 µM in experiment [2] (setting [10]); 3 µM in the experiment on Swiss 3T3 fibroblasts (EGF); 4 µM with Swiss 3T3 fibroblasts (PDGF); 3 µM with Swiss 3T3 fibroblasts (bFGF); 3 µM in the experiment with Swiss 3T3 fibroblasts (serum). Also, the inhibition at 100 µM in [7] stood at 1%. In addition, in experiment [5] (Swiss 3T3, as low as 2 mM), the “inhibition of bFGF mediated tyrosine phosphorylation (selectivity over EGF and PDGF)” value is “more selective and inhibited only bFGF mediated tyrosine phosphorylation”.

Regarding `Cn1c(SSc2c(C(=O)NCc3ccccc3)c3ccccc3n2C)c(C(=O)NCc2ccccc2)c2ccccc21` [Compound 98, bis[N-benzyl 1-methylindolyl-3-carboxamide-(2)]disulfide], the IC50 in experiment [1] is 1.5 µM; in experiment [2] (setting [10]) it was 5 to 12 µM. Further, the inhibition at 100 µM in experiment [7] was 9%.

Take `Cc1ccc(S(=O)(=O)c2c(SSc3[nH]c4ccccc4c3S(=O)(=O)c3ccc(C)cc3)[nH]c3ccccc23)cc1` [Compound 99, bis[3-(4-methylphenylsulfonyl)-2-indolyl]disulfide]: the IC50 was found to be 40 µM in experiment [1] and 2.8 µM in [2] (Swiss-3T3, 72 h, read-out: IC50 growth inhibition). Also, in experiment [7], the inhibition at 100 µM came to 19%.

As for `CN(C)CCNC(=O)c1c(SSc2c(C(=O)NCCN(C)C)c3ccccc3n2C)n(C)c2ccccc12` [Compound 115, 2,2'-dithiobis [N-(N,N-dimethylaminoethyl) 1-methylindolyl-3-carboxamide]], the IC50 was 26 µM in experiment [1]; 19.7 µM in experiment [7] (Table 2, PDGF-R, IC50 entries, read-out: IC50 (PDGFR TK)); > 50 µM in experiment [2] (setting [10]).

For the molecule `O=CN/C=C/c1cc(O)ccc1O` [erbstatin], the “IC50 growth of A431 cells” value in experiment [8] was 3.6 µg/mL. Besides, the tumor growth inhibition result in experiment [9] is given as “inhibits the growth”.

What is called IC50 is the midpoint of a concentration-inhibition curve. One may read the inhibition as the change of the read-out against control, counted positive when it falls.
